Experimental data from patent publication US9850225B2, “Compounds useful as immunomodulators” (BRISTOL-MYERS SQUIBB COMPANY, priority 2014, dated 2017).

These compounds were tested against PD-1/PD-L1 interaction (PD-1-Ig / PD-L1-His) (Homo sapiens (Human), UniProt Q9NZQ7) (assay: PD-1/PD-L1 Homogenous Time-Resolved Fluorescence (HTRF) binding assay). Details: PD-1/PD-L1 HTRF binding assay; numeric value; read-out: Range or IC50.
In short: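 HTRF detection used 1 nM europium-cryptate anti-Ig and 20 nM APC anti-His. Compounds first saw 10 nM PD-L1-His for 15 min, and 20 nM PD-1-Ig was then added for another 15 min. Buffer was dPBS plus 0.1% BSA and 0.05% Tween-20. All concentrations are final.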

Chain of PD-1/PD-L1 interaction (PD-1-Ig / PD-L1-His) (Q9NZQ7 other isoform, or with tags, fused parts or gaps): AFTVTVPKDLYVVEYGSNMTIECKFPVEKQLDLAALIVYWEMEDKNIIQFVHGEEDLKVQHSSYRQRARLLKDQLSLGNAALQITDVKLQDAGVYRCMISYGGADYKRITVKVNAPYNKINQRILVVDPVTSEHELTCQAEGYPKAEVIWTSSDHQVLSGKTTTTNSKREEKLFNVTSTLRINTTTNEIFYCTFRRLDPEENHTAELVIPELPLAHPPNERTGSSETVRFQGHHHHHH

| IC50 | Compound |
| --- | --- |
| 81.2 nM | CC(=O)NCCNCc1ccc(OCc2cccc(-c3ccccc3)c2C)cc1OCc1cc(C#N)ccc1F [Example 1095, N-(2-((2-((5-cyano-2-fluorobenzyl)oxy)-4-((2-methyl-[1,1′-biphenyl]-3-yl)methoxy)benzyl)amino)ethyl)acetamide] |
| 624 nM | CC(=O)NCCNCc1ccc(OCc2cccc(-c3ccccc3)c2C)cc1OCc1ccc(F)c(C)c1 [Example 1108, N-(2-((2-((4-fluoro-3-methylbenzyl)oxy)-4-((2-methyl-[1,1′-biphenyl]-3-yl)methoxy)benzyl)amino)ethyl)acetamide] |
| 14200 nM | CC(=O)NCCNCc1ccc(OCc2cccc(-c3ccccc3)c2C)cc1OCc1cccc(NC(=O)OC(C)(C)C)c1 [Example 1119, tert-butyl (3-((2-(((2-acetamidoethyl)amino)methyl)-5-((2-methyl-[1,1′-biphenyl]-3-yl)methoxy)phenoxy)methyl)phenyl)carbamate] |

Same assay, conditions: PD-1/PD-L1 HTRF binding assay; value given as range class; read-out: Range or IC50

| IC50 | Compound |
| --- | --- |
| 100 to 20000 nM | COc1ccc(F)c(COc2cc(OCc3cccc(-c4ccccc4)c3C)ccc2CNCCNC(C)=O)c1F [Example 1092, N-(2-((2-((2,6-difluoro-3-methoxybenzyl)oxy)-4-((2-methyl-[1,1′-biphenyl]-3-yl)methoxy)benzyl)amino)ethyl)acetamide] |
| 100 to 20000 nM | COc1cc(COc2cc(OCc3cccc(-c4ccccc4)c3C)ccc2CNCCNC(C)=O)ccc1F [Example 1093, N-(2-((2-((4-fluoro-3-methoxybenzyl)oxy)-4-((2-methyl-[1,1′-biphenyl]-3-yl)methoxy)benzyl)amino)ethyl)acetamide] |
| 100 to 20000 nM | COc1cc(F)cc(COc2cc(OCc3cccc(-c4ccccc4)c3C)ccc2CNCCNC(C)=O)c1 [Example 1096, N-(2-((2-((3-fluoro-5-methoxybenzyl)oxy)-4-((2-methyl-[1,1′-biphenyl]-3-yl)methoxy)benzyl)amino)ethyl)acetamide] |
| 100 to 20000 nM | CC(=O)NCCNCc1ccc(OCc2cccc(-c3ccccc3)c2C)cc1OCc1ccc(Br)cc1C#N [Example 1097, N-(2-((2-((4-bromo-2-cyanobenzyl)oxy)-4-((2-methyl-[1,1′-biphenyl]-3-yl)methoxy)benzyl)amino)ethyl)acetamide] |
| 100 to 20000 nM | CC(=O)NCCNCc1ccc(OCc2cccc(-c3ccccc3)c2C)cc1OCc1ccc2[nH]ncc2c1 [Example 1098, N-(2-((2-((1H-indazol-5-yl)methoxy)-4-((2-methyl-[1,1′-biphenyl]-3-yl)methoxy)benzyl)amino)ethyl)acetamide] |
| 100 to 20000 nM | CC(=O)NCCNCc1ccc(OCc2cccc(-c3ccccc3)c2C)cc1OCc1ccncn1 [Example 1100, N-(2-((4-((2-methyl-[1,1′-biphenyl]-3-yl)methoxy)-2-(pyrimidin-4-ylmethoxy)benzyl)amino)ethyl)acetamide] |
| 100 to 20000 nM | CC(=O)NCCNCc1ccc(OCc2cccc(-c3ccccc3)c2C)cc1OCc1ccc2cn[nH]c2c1 [Example 1102, N-(2-((2-((1H-indazol-6-yl)methoxy)-4-((2-methyl-[1,1′-biphenyl]-3-yl)methoxy)benzyl)amino)ethyl)acetamide] |
| 100 to 20000 nM | CC(=O)NCCNCc1ccc(OCc2cccc(-c3ccccc3)c2C)cc1OCc1cccc(C(=O)OC(C)(C)C)c1 [Example 1105, tert-butyl 3-((2-(((2-acetamidoethyl)amino)methyl)-5-((2-methyl-[1,1′-biphenyl]-3-yl)methoxy)phenoxy)methyl)benzoate] |
| 100 to 20000 nM | COc1cc(COc2cc(OCc3cccc(-c4ccccc4)c3C)ccc2CNCCNC(C)=O)cc(OC)c1 [Example 1107] |
| 10 to 100 nM | CC(=O)NCCNCc1ccc(OCc2cccc(-c3ccccc3)c2C)cc1OCc1ccncc1 [Example 1111, N-(2-((4-((2-methyl-[1,1′-biphenyl]-3-yl)methoxy)-2-(pyridin-4-ylmethoxy)benzyl)amino)ethyl)acetamide] |
| 100 to 20000 nM | CC(=O)NCCNCc1ccc(OCc2cccc(-c3ccccc3)c2C)cc1OCc1cc(C)cc(F)c1 [Example 1113, N-(2-((2-((3-fluoro-5-methylbenzyl)oxy)-4-((2-methyl-[1,1′-biphenyl]-3-yl)methoxy)benzyl)amino)ethyl)acetamide] |
| 10 to 100 nM | CC(=O)NCCNCc1ccc(OCc2cccc(-c3ccccc3)c2C)cc1OCc1cccnc1 [Example 1117, N-(2-((4-((2-methyl-[1,1′-biphenyl]-3-yl)methoxy)-2-(pyridin-3-ylmethoxy)benzyl)amino)ethyl)acetamide] |
| 10 to 100 nM | CC(=O)NCCNCc1ccc(OCc2cccc(-c3ccccc3)c2C)cc1OC[C@@H]1CCC(=O)N1 [Example 1120, (S)—N-(2-((4-((2-methyl-[1,1′-biphenyl]-3-yl)methoxy)-2-((5-oxopyrrolidin-2-yl)methoxy)benzyl)amino)ethyl)acetamide] |
| 0.6 to 10 nM | Cc1c(COc2ccc(CN[C@@H](C(=O)O)[C@H](C)O)c(OCc3cccc(C#N)c3)c2)cccc1-c1ccc2c(c1)OCCO2 [Example 1123, (2R,3S)-2-((2-((3-cyanobenzyl)oxy)-4-((3-(2,3-dihydrobenzo[b][1,4]dioxin-6-yl)-2-methylbenzyl)oxy)benzyl)amino)-3-hydroxybutanoic acid] |
| 0.6 to 10 nM | Cc1c(COc2ccc(CNC(C)(CO)C(=O)O)c(OCc3cccc(C#N)c3)c2)cccc1-c1ccc2c(c1)OCCO2 (centres unmarked) [Example 1124, 2-((2-((3-cyanobenzyl)oxy)-4-((3-(2,3-dihydrobenzo[b][1,4]dioxin-6-yl)-2-methylbenzyl)oxy)benzyl)amino)-3-hydroxy-2-methylpropanoic acid] |

Second part, the compound before the results:

| Compound | IC50 |
| --- | --- |
| CC(=O)NCCNCc1ccc(OCc2cccc(-c3ccccc3)c2C)cc1OCc1cc(C)ccc1F [Example 1094, N-(2-((2-((2-fluoro-5-methylbenzyl)oxy)-4-((2-methyl-[1,1′-biphenyl]-3-yl)methoxy)benzyl)amino)ethyl)acetamide] | 100 to 20000 nM |
| CC(=O)NCCNCc1ccc(OCc2cccc(-c3ccccc3)c2C)cc1OCc1ccc2c(cnn2C2CCCCO2)c1 (centres unmarked) [Example 1099, N-(2-((4-((2-methyl-[1,1′-biphenyl]-3-yl)methoxy)-2-((1-(tetrahydro-2H-pyran-2-yl)-1H-indazol-5-yl)methoxy)benzyl)amino)ethyl)acetamide] | 100 to 20000 nM |
| COC(=O)Cc1cccc(COc2cc(OCc3cccc(-c4ccccc4)c3C)ccc2CNCCNC(C)=O)c1 [Example 1101, methyl 2-(3-((2-(((2-acetamidoethyl)amino)methyl)-5-((2-methyl-[1,1′-biphenyl]-3-yl)methoxy)phenoxy)methyl)phenyl)acetate] | 100 to 20000 nM |
| COC(=O)c1ccc(F)c(COc2cc(OCc3cccc(-c4ccccc4)c3C)ccc2CNCCNC(C)=O)c1 [Example 1103, methyl 3-((2-(((2-acetamidoethyl)amino)methyl)-5-((2-methyl-[1,1′-biphenyl]-3-yl)methoxy)phenoxy)methyl)-4-fluorobenzoate] | 100 to 20000 nM |
| CC(=O)NCCNCc1ccc(OCc2cccc(-c3ccccc3)c2C)cc1OCc1noc(C)n1 [Example 1104, N-(2-((2-((5-methyl-1,2,4-oxadiazol-3-yl)methoxy)-4-((2-methyl-[1,1′-biphenyl]-3-yl)methoxy)benzyl)amino)ethyl)acetamide] | 100 to 20000 nM |
| CC(=O)NCCNCc1ccc(OCc2cccc(-c3ccccc3)c2C)cc1OCc1cc(F)cc(OC(F)(F)F)c1 [Example 1106, N-(2-((2-((3-fluoro-5-(trifluoromethoxy)benzyl)oxy)-4-((2-methyl-[1,1′-biphenyl]-3-yl)methoxy)benzyl)amino)ethyl)acetamide] | 100 to 20000 nM |
| CC(=O)NCCNCc1ccc(OCc2cccc(-c3ccccc3)c2C)cc1OCc1cc(Cl)ccc1F [Example 1109] | 100 to 20000 nM |
| CC(=O)NCCNCc1ccc(OCc2cccc(-c3ccccc3)c2C)cc1OCc1ccc(F)c(Cl)c1 [Example 1110, N-(2-((2-((3-chloro-4-fluorobenzyl)oxy)-4-((2-methyl-[1,1′-biphenyl]-3-yl)methoxy)benzyl)amino)ethyl)acetamide] | 100 to 20000 nM |
| CC(=O)NCCNCc1ccc(OCc2cccc(-c3ccccc3)c2C)cc1OCc1cccc(-n2cccc2)c1 [Example 1112, N-(2-((2-((3-(1H-pyrrol-1-yl)benzyl)oxy)-4-((2-methyl-[1,1′-biphenyl]-3-yl)methoxy)benzyl)amino)ethyl)acetamide] | 100 to 20000 nM |
| CC(=O)NCCNCc1ccc(OCc2cccc(-c3ccccc3)c2C)cc1OCc1ccc(F)c(C#N)c1 [Example 1114, N-(2-((2-((3-cyano-4-fluorobenzyl)oxy)-4-((2-methyl-[1,1′-biphenyl]-3-yl)methoxy)benzyl)amino)ethyl)acetamide] | 10 to 100 nM |
| CC(=O)NCCNCc1ccc(OCc2cccc(-c3ccccc3)c2C)cc1OCc1cccc(OC(F)F)c1 [Example 1116, N-(2-((2-((3-(difluoromethoxy)benzyl)oxy)-4-((2-methyl-[1,1′-biphenyl]-3-yl)methoxy)benzyl)amino)ethyl)acetamide] | 100 to 20000 nM |
| CC(=O)NCCNCc1ccc(OCc2cccc(-c3ccccc3)c2C)cc1OCc1nccc2ccccc12 [Example 1118, N-(2-((2-(isoquinolin-1-ylmethoxy)-4-((2-methyl-[1,1′-biphenyl]-3-yl)methoxy)benzyl)amino)ethyl)acetamide] | 100 to 20000 nM |
| Cc1c(COc2ccc(CNC[C@@H](O)CC(=O)O)c(OCc3cccc(C#N)c3)c2)cccc1-c1ccc2c(c1)OCCO2 [Example 1121, (S)-4-(2-(3-cyanobenzyloxy)-4-(3-(2,3-dihydrobenzo[b][1,4]dioxin-6-yl)-2-methylbenzyloxy)benzylamino)-3-hydroxybutanoic acid] | 0.6 to 10 nM |
| Cc1c(COc2ccc(CN[C@H](CO)C(=O)O)c(OCc3cccc(C#N)c3)c2)cccc1-c1ccc2c(c1)OCCO2 [Example 1122, (R)-2-(2-(3-cyanobenzyloxy)-4-(3-(2,3-dihydrobenzo[b][1,4]dioxin-6-yl)-2-methylbenzyloxy)benzylamino)-3-hydroxypropanoic acid] | 0.6 to 10 nM |
